Laboratory results published in patent US20030087395A1, “Cardiotrophin-like cytokine” (Human Genome Sciences, Inc., priority 1997, published 2003).

Experiments:
U937 cells = assay: GAS-SEAP/U937 assay identifying myeloid activity; type: cell-based; conditions: 100 Unit/ml; U937 GAS-SEAP; typically observed
Description: The following protocol is used to assess myeloid activity of CLC by determining whether CLC proliferates and/or differentiates myeloid cells. Myeloid cell activity is assessed using the GAS/SEAP/Neo construct produced in Example 6. Thus, factors that increase SEAP activity indicate the ability to activate the Jaks-STATS signal transduction pathway. The myeloid cell used in this assay is U937, a pre-monocyte cell line, although TF-1, HL60, or KG1 can be used.
To transiently transfect U937 cells with the GAS/SEAP/Neo construct produced in Example 6, a DEAE-Dextran method (Kharbanda, et. al., Cell Growth & Differentiation 5:259-265 (1994)) is used. First, harvest 2×10^7 U937 cells and wash with PBS. The U937 cells are usually grown in RPMI 1640 medium containing 10% heat-inactivated fetal bovine serum (FBS) supplemented with 100 units/ml penicillin and […] streptomycin.
Next, suspend the cells in 1 ml of 20 mM Tris-HCl (pH 7.4) buffer containing 0.5 mg/ml DEAE-Dextran, 8 ug GAS-SEAP2 plasmid DNA, 140 mM NaCl, 5 mM KCl, 375 μM Na2HPO47H2O, […], and 675 μM CaCl2. Incubate at 37° C. for 45 min.
Wash the cells with RPMI 1640 medium containing 10% FBS and then resuspend in 10 ml complete medium and incubate at 37° C. for 36 hr.
The GAS-SEAP/U937 stable cells are obtained by growing the cells in 400 μg/ml G418. […]

STATS = conditions: numbers of the STATs activated; adapted from Schidler and Darnell review; cited from earlier work
Jurkat T-cells = assay: Jurkat:GAS-SEAP screening assay for T-cell activity; type: cell-based; conditions: 100 Unit/ml, typically observed
Description: The following protocol is used to assess T-cell activity of CLC by determining whether CLC supernatant proliferates and/or differentiates T-cells. T-cell activity is assessed using the GAS/SEAP/Neo construct produced in Example 6. Thus, factors that increase SEAP activity indicate the ability to activate the Jaks-STATs signal transduction pathway. The T-cell used in this assay is Jurkat T-cells (ATCC Accession No. TIB-152), although Molt-3 cells (ATCC Accession No. CRL-1552) and Molt-4 cells (ATCC Accession No. CRL-1582) cells can also be used.
Jurkat T-cells are lymphoblastic CD4+ Th1 helper cells. In order to generate stable cell lines, approximately 2 million Jurkat cells are transfected with the GAS-SEAP/neo vector using DMRIE-C (Life Technologies; transfection procedure described below). The transfected cells are seeded to a density of approximately 20,000 cells per well and transfectants resistant to 1 mg/ml geneticin selected. Resistant colonies are expanded and then tested for their response to increasing concentrations of interferon gamma.
Specifically, the following protocol will yield sufficient cells for 75 wells containing 200 μl of cells. Thus, it is either scaled up, or performed in multiple to generate sufficient cells for multiple 96 well plates. Jurkat cells are maintained in RPMI+10% serum with 1% Pen-Strep. […]

GAS or ISRE = conditions: element bound; adapted from Schidler and Darnell review; cited from earlier work
M1 cells [1] = assay: M1 cell proliferation by BrdU incorporation; type: cell-based; conditions: dose of 100 μL, 72 hours
Description: The effect of CLC on cellular proliferation can be assayed in M1 cells by BrdU incorporation. 1×10^4 cells/100 μL are dispensed into 96-well cell culture plates and labeled with 10 μL BrdU. CLC is added to the cells at several doses (0, 5, 25, and 100 μL) and LIF is added to the cells as a positive control at a dose of 100 μL. The cells are allowed to grow for 72 hours at 37° C. The amount of BrdU incorporation is determined by the Cell Proliferation ELISA BrdU colorimetric kit (Boehringer Mannheim).

M1 cells [2] = assay: Protein tyrosine phosphorylation after anti-gp130 immunoprecipitation; type: cell-based; conditions: M1 cells treated with CLC or LIF supernatant; band of apparent molecular mass 32 kDa
Description: Because of the wide range of known factors capable of stimulating tyrosine kinase activity, identifying whether CLC or a molecule induced by CLC is capable of activating tyrosine kinase signal transduction pathways is of interest. Therefore, the following protocol is designed to identify such molecules capable of activating the tyrosine kinase signal transduction pathways.
Seed NIH-3T3 cells in 15 cm^2 cell culture plates in DMEM supplemented with Pen/Strep, 10% FBS, 25 mM Hepes. […] At the point the experiment begins, the cells should be 80-90% confluent. Collect M1 cells in 50 ml tube and centrifuge 1000 rpm for 5 min. Resuspend the cell pellet in “quiescing medium” which is RPMI supplemented with Pen/Strep, glutamine. (It is important to note that quiescing medium contains neither serum nor growth factors.) Centrifuge again at 1000 rpm for 5 min to wash the cells. Again, resuspend the cells in quiescing medium. Incubate the M1 cells in quiescing medium for 16 hours at 37° C.
Pre-warm quiescing medium (for Ml cells) and a metal tube rack to 37° C. Pre-cool quiescing media (for NIH-3T3 cells) and sterile Eppendorf tubes containing 0.5 ml of sample. […] Resuspend M1 cells to 5.0×10^7 cells per 0.5 ml quiescing media. Place all tubes on per warmed metal rack and leave at 37° C. until ready to begin. Add samples to these pre-aliquoted tubes. […]

Substance	induction of SEAP in positive control wells (U937 cells)	STATS (STATS)	induction of SEAP in positive control wells (Jurkat T-cells)	GAS or ISRE (GAS or ISRE)	inhibition of M1 cell proliferation with respect to the negative control (M1 cells [1])	band of tyrosine-phosphorylated protein in cell extracts (M1 cells [2])
interferon gamma: positive control known to activate Jurkat T cells and U937 cells [reference compound]	Over 30 fold	1	Over 30 fold	GAS	–	–
LIF: leukemia inhibitory factor, IL-6 family cytokine used as positive control for CLC [reference compound]	–	1,3	–	–	4.8 fold	produced a band of phosphorylated protein
